Assay results as given in the supplement of paper PMC8967900.

Columns and labels:
Assay in all cases: selective drug sensitivity score (sDSS, relative to normal bone marrow) (sDSS (score)); higher = more potent and effective on the cell line relative to normal bone marrow cells
Details in all cases: 72 h
ALL-SIL = system: ALL-SIL
COG-LL-355h = system: COG-LL-355h
RPMI-8402 = system: RPMI-8402
KARPAS-45 = system: KARPAS-45
PEER = system: PEER
JURKAT = system: JURKAT
COG-LL-317 = system: COG-LL-317
PF-382 = system: PF-382
KASUMI-9 = system: KASUMI-9
MOLT-4 = system: MOLT-4
TMD5 = system: TMD5
COG-LL-402h = system: COG-LL-402h
MHH-CALL-2 = system: MHH-CALL-2
P12-ICHIKAWA = system: P12-ICHIKAWA
COG-LL-394h = system: COG-LL-394h
RCH-ACV = system: RCH-ACV
380 = system: 380
ALL-PO = system: ALL-PO
MHH-CALL-3 = system: MHH-CALL-3
P30-OHKUBO = system: P30-OHKUBO
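Further: ALL cell lines in 384-well plates, five doses spanning 10,000-fold, each plate scaled between vehicle and 100 µmol/L benzalkonium chloride controls, sDSS an adapted area-under-curve metric.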

Row | SMILES | selective drug sensitivity score (ALL-SIL) | selective drug sensitivity score (COG-LL-355h) | selective drug sensitivity score (RPMI-8402) | selective drug sensitivity score (KARPAS-45) | selective drug sensitivity score (PEER) | selective drug sensitivity score (JURKAT) | selective drug sensitivity score (COG-LL-317) | selective drug sensitivity score (PF-382) | selective drug sensitivity score (KASUMI-9) | selective drug sensitivity score (MOLT-4) | selective drug sensitivity score (TMD5) | selective drug sensitivity score (COG-LL-402h) | selective drug sensitivity score (MHH-CALL-2) | selective drug sensitivity score (P12-ICHIKAWA) | selective drug sensitivity score (COG-LL-394h) | selective drug sensitivity score (RCH-ACV) | selective drug sensitivity score 380 | selective drug sensitivity score (ALL-PO) | selective drug sensitivity score (MHH-CALL-3) | selective drug sensitivity score (P30-OHKUBO)
1 | CC(=O)O[C@H]1C(=O)[C@@]2(C)[C@H]([C@H](OC(=O)c3ccccc3)[C@]3(O)C[C@H](OC(=O)[C@H](O)[C@@H](NC(=O)c4ccccc4)c4ccccc4)C(C)=C1C3(C)C)[C@]1(OC(C)=O)CO[C@@H]1C[C@@H]2O [Paclitaxel] (top concentration 1000 nM) | 20.8 | 5.14 | 16 | 18.3 | 22.2 | 18.3 | 19.6 | 13.2 | 19.6 | 19.3 | 8.14 | 12.8 | 17.3 | 19.9 | 6.84 | 21.8 | 19.9 | 17.8 | 5.24 | 22
2 | CCOc1ccn(-c2ccc(F)cc2)c(=O)c1C(=O)Nc1ccc(Oc2ccnc(N)c2Cl)c(F)c1 (top concentration 2500 nM) | 8 | 0 | 0.4 | 2.2 | 3.9 | 0 | 0 | 0 | 0 | 0.1 | 0 | 0 | 0 | 3 | 0.8 | 1 | 0 | 2.7 | 0 | 1.5
3 | C[C@]1(O)C[C@@H](c2nc(-c3ccc4ccc(-c5ccccc5)nc4c3)c3c(N)nccn32)C1 [Linsitinib] (top concentration 10000 nM) | 2.22 | 3.12 | -2.08 | -3.18 | -0.98 | -3.18 | -3.18 | -2.88 | -2.98 | -2.58 | 1.62 | -3.18 | 2.32 | -3.18 | -0.68 | 0.72 | 1.72 | 3.92 | -3.18 | -0.68
4 | C=CC[C@@H]1/C=C(\C)C[C@H](C)C[C@H](OC)[C@H]2O[C@@](O)(C(=O)C(=O)N3CCCC[C@H]3C(=O)O[C@H](/C(C)=C/[C@@H]3CC[C@@H](O)[C@H](OC)C3)[C@H](C)[C@@H](O)CC1=O)[C@H](C)C[C@@H]2OC [Tacrolimus] (top concentration 10000 nM) | 1.08 | 3.18 | 1.38 | 2.18 | 1.38 | 1.78 | 0.68 | 0.78 | 12.1 | 1.38 | 13.5 | -0.72 | 24.6 | 1.58 | 3.08 | 10.7 | 1.88 | 2.08 | 33.9 | 16.1
5 | C=CC(=O)Nc1cc(Nc2nccc(-c3cn(C)c4ccccc34)n2)c(OC)cc1N(C)CCN(C)C [Osimertinib] (top concentration 2500 nM) | -2.52 | 2.98 | -0.42 | -1.92 | 1.28 | -4.22 | 0.78 | -2.12 | 3.88 | -3.12 | 2.98 | 0.78 | 3.18 | -3.02 | 1.68 | -1.02 | -3.82 | -0.72 | -4.62 | 1.08
6 | COc1cc(C(=O)O)ccc1NC(=O)[C@@H]1N[C@@H](CC(C)(C)C)[C@](C#N)(c2ccc(Cl)cc2F)[C@H]1c1cccc(Cl)c1F [Idasanutlin] (top concentration 10000 nM) | -12.5 | 13.7 | -12.5 | -8.34 | -9.04 | -7.74 | 28.4 | -12.2 | 23 | 20.7 | 12.6 | 15.4 | 18.7 | -11.5 | 4.96 | 21 | 23.5 | -12.5 | 21.9 | 20.8
7 | CN1CCN(C(=O)c2ccc3cc(CCNc4ncnc5ccc(C#N)cc45)ccc3c2)CC1 [Senexin_B] (top concentration 1000 nM) | -0.6 | -0.6 | 1.1 | 1.4 | 1.8 | 3.1 | 0.5 | -0.1 | -0.6 | -0.6 | -0.6 | -0.4 | -0.1 | 0.4 | 1 | 2 | -0.6 | -0.6 | -0.1 | 0.4
8 | CN1CCN(C2CCN(C(=O)Nc3cc(Oc4ccc(NC(=O)C5(C(=O)Nc6ccc(F)cc6)CC5)c(F)c4)ccn3)CC2)CC1 [Golvatinib] (top concentration 2500 nM) | 4.56 | -0.14 | 0.26 | 0.76 | 2.46 | -0.14 | -0.14 | -0.14 | 0.66 | -0.14 | 0.76 | -0.14 | 0.26 | -0.14 | 2.26 | 4.26 | -0.14 | 3.16 | -0.14 | 0.56
9 | O=C(O)c1ccc(CN2CCC(CN[C@@H]3C[C@H]3c3ccccc3)CC2)cc1 (top concentration 100000 nM) | -0.62 | 0.58 | -0.22 | -0.32 | -0.22 | -0.62 | 6.48 | -0.42 | -0.62 | -0.62 | -0.62 | -0.62 | -0.02 | -0.62 | -0.62 | -0.62 | -0.62 | 2.08 | -0.62 | -0.62
10 | COc1cc(CCc2cc(NC(=O)c3ccc(N4CC(C)NC(C)C4)cc3)n[nH]2)cc(OC)c1 (stereo not given) [AZD4547] (top concentration 1000 nM) | 0.56 | -0.14 | -0.14 | -0.14 | -0.14 | -0.14 | -0.14 | -0.14 | -0.14 | -0.14 | -0.14 | -0.14 | -0.14 | -0.14 | 0.16 | 3.46 | -0.14 | 0.46 | -0.14 | -0.14
11 | CCCCOc1nc(N)c2c(n1)N(Cc1cccc(CN3CCCC3)c1)CC(=O)N2 [Vesatolimod] (top concentration 10000 nM) | -3.52 | 0.28 | -3.52 | -3.52 | -3.52 | -3.42 | -2.92 | -3.52 | -2.92 | -3.52 | -3.52 | -3.52 | -3.52 | -3.52 | -3.32 | -3.52 | -3.52 | -3.52 | -3.52 | -3.52
12 | CC1(C)CCC(CN2CCN(c3ccc(C(=O)NS(=O)(=O)c4ccc(NCC5CCOCC5)c([N+](=O)[O-])c4)c(Oc4cnc5[nH]ccc5c4)c3)CC2)=C(c2ccc(Cl)cc2)C1 [Venetoclax] (top concentration 1000 nM) | 16.5 | 31.2 | -4.4 | 9.5 | -2.9 | -3.3 | 2.2 | -4.1 | 25.4 | 8.88e-16 | 20.8 | 14.1 | 28.7 | -2.4 | 4.5 | -1.3 | 29 | 30.2 | 31.5 | 21
13 | CCCCCCCCc1ccc(CCC(N)(CO)CO)cc1 [Fingolimod] (top concentration 10000 nM) | 1.98 | 6.88 | -1.12 | -0.02 | 1.78 | -1.12 | 1.08 | -0.62 | 0.08 | 1.78 | 0.48 | -0.92 | 8.88 | -0.92 | 1.68 | 0.98 | -1.12 | 2.28 | -3.42 | 1.38
14 | COc1cc(Nc2c(C#N)cnc3cc(OCCCN4CCN(C)CC4)c(OC)cc23)c(Cl)cc1Cl [Bosutinib] (top concentration 10000 nM) | 26.7 | 1.86 | 1.56 | 2.46 | 9.16 | -0.74 | -2.64 | 4.76 | 4.06 | -0.64 | 9.06 | 5.66 | 7.66 | 0.96 | 1.16 | 5.76 | -0.64 | 0.36 | 8.06 | 3.56
15 | N#CC1(c2ccc(NC(=O)c3cccnc3NCc3ccncc3)cc2)CCCC1 [Apatinib] (top concentration 10000 nM) | 0 | 0 | 0.1 | 0 | 2.2 | 0 | 0 | 0 | 0 | 0 | 0 | 0 | 1.2 | 0 | 0 | 1.1 | 0 | 2.4 | 0 | 0
16 | O=C(Nc1cc(Cl)cc2c1[nH]c1cnccc12)c1cccnc1 [PS-1145] (top concentration 25000 nM) | -0.46 | -0.46 | -0.46 | 0.34 | -0.46 | -0.36 | -0.46 | -0.46 | 0.44 | -0.46 | -0.46 | -0.46 | 6.74 | -0.46 | -0.46 | 3.04 | -0.46 | -0.36 | -0.46 | 1.94
